Assay results published in PMC10247784, “Physiological activation of human and mouse bitter taste receptors by bile acids” (Communications Biology, 2023).
Several values for one entry are separate records, joined by “and”; a condition that tells them apart may be missing. Equal entries are not always repeated.

Target: T1, human TAS2R4 (Homo sapiens, UniProt Q9NYW5)
T1 construct: expressed in transfected cells; host or cells: HEK293T-Gα16gust44
T1 sequence (Q9NYW5 1-299): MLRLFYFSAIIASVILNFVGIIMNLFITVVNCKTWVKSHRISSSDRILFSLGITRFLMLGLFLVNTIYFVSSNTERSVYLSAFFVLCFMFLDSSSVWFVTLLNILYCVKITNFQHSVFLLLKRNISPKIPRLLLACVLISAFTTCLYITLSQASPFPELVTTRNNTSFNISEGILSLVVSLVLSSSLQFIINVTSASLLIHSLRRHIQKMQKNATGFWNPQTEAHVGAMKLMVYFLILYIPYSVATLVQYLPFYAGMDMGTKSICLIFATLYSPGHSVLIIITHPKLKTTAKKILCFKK
Test: Calcium imaging assay (FLIPR), HEK293T-Gα16gust44 cells transfected with human TAS2R4
Type: cell-based
Description: This set of bile acids was chosen because of their commercial availability in high purities, their diversity within the class of bile acids and their previous detection and quantitation in human blood. Stock solutions were prepared in DMSO.
As basal growth medium for the HEK293T-Gα16gust44 cell line[17],[59] served Dulbecco’s modified eagle medium (DMEM) (Thermo Fisher Scientific, Darmstadt, Germany) supplemented with 10 % fetal bovine serum (Sigma-Aldrich, Steinheim, Germany), 2 mM L-glutamine (Sigma-Aldrich, Steinheim, Germany), 100 units/ml penicillin (Sigma Aldrich, Steinheim, Germany) and 100 µg/ml streptomycin (Sigma Aldrich, Steinheim, Germany). Growth conditions were 37 °C, 5 % CO2 and saturated air-humidity[60].
HEK293T-Gα16gust44 cells were seeded on poly-D-lysine (10 µg/ml) coated 96-well plates to reach a confluence of 40-60 % the next day. For transient transfection 150 ng of plasmid DNA containing the receptor of interest and 0.3 µl lipofectamine 2000 (Thermo Fisher Scientific, Darmstadt, Germany) per well were used and transfection took place according to the manual of lipofectamine 2000. […] The empty vector DNA (mock) was transfected as negative control[14],[41].
Cells were loaded using the calcium-sensitive fluorescent dye Fluo-4-AM (Abcam, Cambridge, Great Britain) in the presence of 2.5 mM probenecid (Sigma-Aldrich, Steinheim, Germany) the day after transfection[13],[41]. 1 h after loading, cells were washed with C1 buffer using a BioTek Cell Washer, incubated in the dark for half an hour and washed again. For automated agonist application and measurement of fluorescence changes, a FLIPR^TETRA device (Molecular Devices, San José, United States) was used. Viability of cells was tested by application of 100 nM Somatostatin 14 (Bachem, Bubendorf, Switzerland)[42].
Measured data were negative control corrected by subtracting the signal of the mock-transfected cells and exported to Microsoft Excel using the FLIPR software ScreenWorks 4.2. In Microsoft Excel software, standardization of maximum fluorescence intensities to the basal fluorescence and normalization to the buffer-only control was done to calculate the relative fluorescence changes (ΔF/F).
Initial screening experiments performed in duplicate wells were confirmed by at least one replication and representative traces were selected for display. All dose-response relationships were determined by three independent experiments (biological replicates) performed in duplicates (technical replicates). Threshold concentrations, defined as lowest substance concentrations leading to statistically significant elevated fluorescence changes in receptor-transfected cells compared with empty vector-transfected cells, were determined using SigmaPlot with Student’s t-test to evaluate statistical significance (p < 0.01).

Efficacy = maximal amplitude (ΔF/F) (TAS2R4, bile acids, mean): 0.08533 | Efficacy (maximal amplitude ΔF/F), individual data points (TAS2R4, bile acids, single replicates, listed as DCA): 0.07628 and 0.1105 and 0.06917 | RLU, fluorescence trace (Time (s) 0): 0 RLU | RLU, fluorescence trace (Time (s) 2): -24.43 RLU | RLU, fluorescence trace (Time (s) 4): -23.5542 RLU | RLU, fluorescence trace (Time (s) 6): -22.8766 RLU | RLU, fluorescence trace (Time (s) 8): -1.905 RLU | RLU, fluorescence trace (Time (s) 12): -21.8648 RLU | RLU, fluorescence trace (Time (s) 14): -18.1346 RLU | RLU, fluorescence trace (Time (s) 16): -52.8215 RLU | RLU, fluorescence trace (Time (s) 18): -24.2064 RLU | RLU, fluorescence trace (Time (s) 18.766 (TCA, TLCA: 18.782)): -22.8202 RLU | RLU, fluorescence trace (Time (s) 20.781 (TCA, TLCA: 20.782)): -95.6069 RLU | RLU, fluorescence trace (Time (s) 22.781 (TCA, TLCA: 22.782)): -71.6568 RLU | RLU, fluorescence trace (Time (s) 24.781 (TCA, TLCA: 24.782)): -40.8819 RLU | RLU, fluorescence trace (Time (s) 26.781 (TCA, TLCA: 26.782)): -9.811 RLU | RLU, fluorescence trace (Time (s) 28.781 (TCA, TLCA: 28.782)): 38.1772 RLU | RLU, fluorescence trace (Time (s) 30.781 (TCA, TLCA: 30.782)): 89.531 RLU | RLU, fluorescence trace (Time (s) 32.781 (TCA, TLCA: 32.782)): 109 RLU | RLU, fluorescence trace (Time (s) 34.781 (TCA, TLCA: 34.782)): 155.799 RLU | RLU, fluorescence trace (Time (s) 36.781 (TCA, TLCA: 36.782)): 198.766 RLU | RLU, fluorescence trace (Time (s) 38.781 (TCA, TLCA: 38.782)): 215 RLU | RLU, fluorescence trace (Time (s) 40.781 (TCA, TLCA: 40.782)): 245.601 RLU | RLU, fluorescence trace (Time (s) 42.781 (TCA, TLCA: 42.782)): 273.234 RLU | RLU, fluorescence trace (Time (s) 44.781 (TCA, TLCA: 44.782)): 289.793 RLU | RLU, fluorescence trace (Time (s) 46.781 (TCA, TLCA: 46.782)): 293.169 RLU | RLU, fluorescence trace (Time (s) 48.781 (TCA, TLCA: 48.782)): 315.257 RLU | RLU, fluorescence trace (Time (s) 50.781 (TCA, TLCA: 50.782)): 327.06 RLU | RLU, fluorescence trace (Time (s) 52.781 (TCA, TLCA: 52.782)): 336.965 RLU | RLU, fluorescence trace (Time (s) 54.781 (TCA, TLCA: 54.782)): 356.774 RLU | RLU, fluorescence trace (Time (s) 56.781 (TCA, TLCA: 56.782)): 358.021 RLU | RLU, fluorescence trace (Time (s) 58.781 (TCA, TLCA: 58.782)): 377.086 RLU | RLU, fluorescence trace (Time (s) 60.781 (TCA, TLCA: 60.782)): 371.413 RLU | RLU, fluorescence trace (Time (s) 62.781 (TCA, TLCA: 62.782)): 354.175 RLU | RLU, fluorescence trace (Time (s) 64.781 (TCA, TLCA: 64.782)): 367.028 RLU | RLU, fluorescence trace (Time (s) 66.781 (TCA, TLCA: 66.782)): 369.018 RLU | RLU, fluorescence trace (Time (s) 68.781 (TCA, TLCA: 68.782)): 401.767 RLU | RLU, fluorescence trace (Time (s) 70.781 (TCA, TLCA: 70.782)): 369.499 RLU | RLU, fluorescence trace (Time (s) 72.781 (TCA, TLCA: 72.782)): 371.417 RLU | RLU, fluorescence trace (Time (s) 74.781 (TCA, TLCA: 74.782)): 395.575 RLU | RLU, fluorescence trace (Time (s) 76.781 (TCA, TLCA: 76.782)): 372.212 RLU | RLU, fluorescence trace (Time (s) 78.781 (TCA, TLCA: 78.782)): 381.123 RLU | RLU, fluorescence trace (Time (s) 80.781 (TCA, TLCA: 80.782)): 377.573 RLU | RLU, fluorescence trace (Time (s) 82.781 (TCA, TLCA: 82.782)): 366.542 RLU | RLU, fluorescence trace (Time (s) 84.781 (TCA, TLCA: 84.782)): 344.412 RLU | RLU, fluorescence trace (Time (s) 86.781 (TCA, TLCA: 86.782)): 365.264 RLU | RLU, fluorescence trace (Time (s) 88.781 (TCA, TLCA: 88.782)): 345.388 RLU | RLU, fluorescence trace (Time (s) 90.781 (TCA, TLCA: 90.782)): 349.245 RLU | RLU, fluorescence trace (Time (s) 92.781 (TCA, TLCA: 92.782)): 348.005 RLU | RLU, fluorescence trace (Time (s) 94.781 (TCA, TLCA: 94.782)): 360.114 RLU | RLU, fluorescence trace (Time (s) 96.781 (TCA, TLCA: 96.782)): 353.364 RLU | RLU, fluorescence trace (Time (s) 98.781 (TCA, TLCA: 98.782)): 356.212 RLU | RLU, fluorescence trace (Time (s) 100.781 (TCA, TLCA: 100.782)): 338.006 RLU | RLU, fluorescence trace (Time (s) 102.781 (TCA, TLCA: 102.782)): 349.375 RLU | RLU, fluorescence trace (Time (s) 104.781 (TCA, TLCA: 104.782)): 357.725 RLU | RLU, fluorescence trace (Time (s) 106.781 (TCA, TLCA: 106.782)): 339.949 RLU | RLU, fluorescence trace (Time (s) 108.781 (TCA, TLCA: 108.782)): 333.434 RLU | RLU, fluorescence trace (Time (s) 110.781 (TCA, TLCA: 110.782)): 336.947 RLU | RLU, fluorescence trace (Time (s) 112.781 (TCA, TLCA: 112.782)): 335.627 RLU | RLU, fluorescence trace (Time (s) 114.781 (TCA, TLCA: 114.782)): 349.641 RLU | RLU, fluorescence trace (Time (s) 116.781 (TCA, TLCA: 116.782)): 340.242 RLU | RLU, fluorescence trace (Time (s) 118.781 (TCA, TLCA: 118.782)): 328.36 RLU | RLU, fluorescence trace (Time (s) 120.781 (TCA, TLCA: 120.782)): 338.913 RLU | RLU, fluorescence trace (Time (s) 122.781 (TCA, TLCA: 122.782)): 364.894 RLU | RLU, fluorescence trace (Time (s) 124.781 (TCA, TLCA: 124.782)): 333.589 RLU | RLU, fluorescence trace (Time (s) 126.781 (TCA, TLCA: 126.782)): 335.132 RLU | RLU, fluorescence trace (Time (s) 128.781 (TCA, TLCA: 128.782)): 319.908 RLU | RLU, fluorescence trace (Time (s) 130.781 (TCA, TLCA: 130.782)): 356.29 RLU | RLU, fluorescence trace (Time (s) 132.781 (TCA, TLCA: 132.782)): 335.417 RLU | RLU, fluorescence trace (Time (s) 134.781 (TCA, TLCA: 134.782)): 327.442 RLU | RLU, fluorescence trace (Time (s) 136.781 (TCA, TLCA: 136.782)): 323.134 RLU | RLU, fluorescence trace (Time (s) 137.547): 342.47 RLU | RLU, fluorescence trace (Time (s) 143.547): 333.389 RLU | RLU, fluorescence trace (Time (s) 149.547): 328.288 RLU | RLU, fluorescence trace (Time (s) 155.547): 355.055 RLU | RLU, fluorescence trace (Time (s) 161.547): 338.156 RLU | RLU, fluorescence trace (Time (s) 167.547): 335.87 RLU | RLU, fluorescence trace (Time (s) 173.547): 351.387 RLU | RLU, fluorescence trace (Time (s) 179.547): 368.586 RLU | RLU, fluorescence trace (Time (s) 185.547): 363.986 RLU | RLU, fluorescence trace (Time (s) 191.547): 372.236 RLU | RLU, fluorescence trace (Time (s) 197.547): 331.461 RLU | RLU, fluorescence trace (Time (s) 203.547): 345.855 RLU | RLU, fluorescence trace (Time (s) 209.547): 348.008 RLU | RLU, fluorescence trace (Time (s) 215.547): 318.834 RLU | RLU, fluorescence trace (Time (s) 221.547): 327.885 RLU | RLU, fluorescence trace (Time (s) 227.547): 345.298 RLU | RLU, fluorescence trace (Time (s) 233.547): 352.884 RLU | RLU, fluorescence trace (Time (s) 239.547): 389.33 RLU | RLU, fluorescence trace (Time (s) 245.547): 399.649 RLU | RLU, fluorescence trace (Time (s) 293.547): 411.409 RLU | RLU, fluorescence trace (Time (s) 299.547): 406.435 RLU | RLU, fluorescence trace (Time (s) 305.547): 380.1 RLU | RLU, fluorescence trace (Time (s) 311.547): 396.715 RLU | RLU, fluorescence trace (Time (s) 317.547): 351.706 RLU | RLU, fluorescence trace (Time (s) 323.547): 391.589 RLU | RLU, fluorescence trace (Time (s) 329.547): 362.796 RLU | RLU, fluorescence trace (Time (s) 335.547): 360.917 RLU | RLU, fluorescence trace (Time (s) 341.547): 350.479 RLU | RLU, fluorescence trace (Time (s) 347.547): 349.654 RLU | RLU, fluorescence trace (Time (s) 353.547): 326.897 RLU | RLU, fluorescence trace (Time (s) 359.547): 343.746 RLU | Activation threshold concentration TAS2R4 (lowest concentration with significantly increased fluorescence vs empty vector (p < 0.01)): 3 µM
Structure (SMILES): C[C@H](CCC(=O)O)[C@H]1CC[C@H]2[C@@H]3CC[C@@H]4C[C@H](O)CC[C@]4(C)[C@H]3C[C@H](O)[C@]12C [Deoxycholic Acid, deoxycholic acid]
